Measured values published in patent US10647680B2, “Urea compound, preparation method therefor and medical use thereof” (Ancureall Pharmaceutical (Shanghai) Co., Ltd., priority 2016, dated 2020).

Tests used:
[1] = test system: A549 (KRAS G12S mutant type); assay: In vitro growth inhibition (GI50), A549; assay type: cell-based; conditions: Homo sapiens; A549, KRAS Gl2S
Description: (§1) Tumor cell line is an effective cell model for studying the inhibition of tumor cell growth or proliferation in vitro. In the present invention, a representative tumor cell line was selected to determine the cell growth inhibition activity of the present compound. All cell lines used were from ATCC, DSMZ, and the Cell Bank of the Chinese Academy of Sciences. Cell culture conditions and methods were in accordance with the requirements of each cell line. Cells were subcultured in vitro for no more than 3 passages each time, and as required, single-clone purification and identification of cell lines could be carried out.
(§2) The cell culture media used were RPMI1640 (Gibco), MEM (Gibco), McCOY'S5A (Gibco), and IMDM (Gibco). The complete medium was prepared by supplement with 5˜20% fetal calf serum (Gibco), 1% double-antibiotics (10000 units/mL penicillin and 10000 units/mL), 2 mM glutamine or 1 mM sodium pyruvate, respectively.
Human large cell lung cancer cell NCI-H460 (KRAS […] mutant type, ATCC), human non-small cell lung cancer cell line H1299 (NRAS Q61K mutant type, ATCC), human melanoma cell line A375 (BRAF V600E mutant type, Shanghai Cell Bank of Chinese Academy of Sciences), human colon cancer cell line HCT116 (KRAS G13D mutant type, Shanghai Cell Bank, Chinese Academy of Sciences) were cultured in a complete medium of 1×RPMI1640 (10% FBS), respectively. Human non-small cell lung cancer cells A549 (KRAS G12S mutant type, Shanghai Cell Bank, Chinese Academy of Sciences) were cultured in a complete medium of 1× Ham's supplemented with 10% FBS, 1% double antibody, and 2 mM glutamine.
(§3) Adherent cells were digested with 0.25% pancreatin-EDTA (Gibco). The suspension cells were collected by centrifugation. The supernatant was discarded and the cell pellet was resuspended and counted. Different cell concentrations (5˜10×10^4 cells/mL) were prepared according to the growth cycle of each cell line and then seeded on a 96-well plate (Corning), 100 μL/well. The cells were incubated overnight at 37° C., 5% CO2. The compounds were added to the cells on the second day with 2 wells in parallel. The final concentration of organic solvent shall not exceed 1%. The cells were continually incubated for 3 to 5 days, and then subjected to MTT assay.
(§4) The compound of the present invention and the control compound were dissolved in DMSO (Sigma) respectively, with the purity of more than 98%. The compound was stored in a concentration of 10 mM at −20° C. and diluted to 2- or 10-fold series prior to use.
(§5) Dojindo CCK8 reagent kit was used as MTT assay. THERMO […] FC meter was used as microplate reader.
(§6) For adherent cells, culture medium was removed and immediately replaced with the fresh prepared medium which contains 10% CCK8 reagent (100 μL/well). For the suspension cells, CCK8 was directly added to 10% of the final concentration. The cells were continually incubated for 1˜4 h. When a dark yellow color could be observed in the solvent control wells, the absorbance value at OD450 nm was measured and the cell growth rate was calculated according to the following formula: Cell Growth Rate (%)=100*(T−T0)/(C−T0) T=optical density of drug treatment cell well—optical density of blank control well; T0=optical density of cell well before drug treatment—optical density of blank control well; C=optical density of cell well of solvent control group—optical density of blank control well. The concentration value of 50% inhibition of cell growth (GI50) was calculated according to the drug concentration and cell growth rate curve. The experiment was independently repeated 1˜3 times, and subject to biological statistical analysis. 4. Experimental Results
Tumor cell growth inhibition test was performed by selecting representative compounds (compounds 4, 11, 12, 16, 27, 68, 71, 77, 79, 89 and 116 of the present invention). The initial concentration of the compound was 5,000 nM, then it was serially diluted by 2-fold or 10-fold to 0.01 nM. […]

[2] = test system: SH-SY5Y (expressing ALK F1174L mutant protein); assay: In vitro growth inhibition (GI50), SH-SY5Y; assay type: cell-based; conditions: Homo sapiens
Description: as §1, §2
Human non-small cell lung cancer cell line NCI-H2228 (expressing EML4-ALK fusion gene, ATCC) and human anaplastic large cell lymphoma cell line Karpas-299 (expressing NPM-ALK fusion gene, ATCC) were cultured in complete medium comprising 1×RPMI1640 (10% FBS), respectively. Neuroblastoma cell line SH-SY5Y (expressing ALK F1174L mutant protein, Shanghai Cell Bank, Chinese Academy of Sciences) was cultured in MEM complete medium (1×MEM, 10% FBS, 1% NEAA, 1 mM sodium pyruvate).
as §3, §4, §5, §6
Tumor cell growth inhibition test was performed by selecting representative compounds (compounds 4, 11, 12, 16, 27, 68, 71, 77, 79, 89 and 116 of the present invention). The initial concentration of the compound was 5,000 nM, then it was serially diluted by 2-fold or 10-fold to 0.01 nM. The GI50 value of each test compound was calculated according to the GI50 assay and calculation method. The experiments were repeated 1 to 3 times, and data were subjected to biological statistical analysis.

Row | Compound | GI50 [1] | GI50 [2]
1 | COCCOc1ccc2c(c1)ncn2-c1ccc(NC(=O)Nc2cc(C(C)(C)C)n[nH]2)cc1 [Compound 77, 1-(5-tert-butyl-2H-pyrazol-3-yl)-3-{4-[5-(2-methoxyl-ethoxyl)-benzimidazol-1-yl]-phenyl}-urea] | > 2500 nM | > 2500 nM
2 | COc1ccc2c(c1)ncn2-c1ccc(NC(=O)Nc2cc(C(C)(C)C)n[nH]2)cc1 [Compound 71, 1-(5-tert-butyl-2H-pyrazol-3-yl)-3-[4-(5-methoxyl-benzimidazol-1-yl)-phenyl]-urea] | > 2500 nM | > 2500 nM
3 | CC(C)(C)c1cc(NC(=O)Nc2ccc(-n3cnc4cc(O)ccc43)cc2)no1 [Compound 4, 1-(5-tert-butyl-isoxazol-3-yl)-3-[4-(5-hydroxy-benzimidazol-1-yl)-phenyl]-urea] | > 2500 nM | > 2500 nM
4 | CC(C)(C)c1cc(NC(=O)Nc2ccc(-n3cnc4cc(OCCO)ccc43)cc2)[nH]n1 [Compound 79, 1-(5-tert-butyl-2H-pyrazol-3-yl)-3-{4-[5-(2-hydroxy-ethoxyl)-benzimidazol-1-yl]-phenyl]urea] | > 2500 nM | > 2500 nM

The next lines start with the values.

Row | GI50 [1] | GI50 [2] | Compound
5 | > 2500 nM | > 2500 nM | CC(C)(C)c1cc(NC(=O)Nc2ccc(-n3cnc4ccc(OCCN5CCOCC5)cc43)cc2)no1 [Compound 27, 1-(5-tert-butyl-isoxazol-3-yl)-3-{4-[6-(2morpholin-4-yl-ethoxyl)-benzimidazol-1-yl]-phenyl}-urea]
6 | > 2500 nM | > 2500 nM | CC(C)(C)c1cc(NC(=O)Nc2ccc(-n3cnc4cc(OCCO)ccc43)cc2)no1 [Compound 11, 1-(5-tert-butyl-isoxazol-3-yl)-3-{4-[5-(2-hydroxy-ethoxyl)-benzimidazol-1-yl]-phenyl]-urea]
7 | > 2500 nM | > 2500 nM | CC(C)(C)c1cc(N)n(C(=O)Nc2ccc(-n3cnc4ccccc43)cc2)n1 [Compound 116, 5-amino-3-tert-butyl-pyrazol-1-carboxylic acid (4-benzimidazol-1-yl-phenyl)-amide]
8 | > 2500 nM | > 2500 nM | CC(C)(C)c1cc(NC(=O)Nc2ccc(-n3cnc4cc(OCCN5CCOCC5)ccc43)cc2)no1 [Compound 16, 1-(5-tert-butyl-isoxazol-3-yl)-3-{4-[5-(2-morpholin-4-yl-ethoxyl)-benzimidazol-1-yl]-phenyl}-urea]
9 | > 2500 nM | > 2500 nM | CC(C)(C)c1cc(NC(=O)Nc2ccc(-n3cnc4ccccc43)cc2)[nH]n1 [Compound 68, 1-(4-benzimidazol-1-yl-phenyl)-3-(5-tert-butyl-2H-pyrazol-3-yl)-urea]
10 | > 2500 nM | > 2500 nM | CC(C)(C)c1cc(NC(=O)Nc2ccc(-n3cnc4cc(OCCN5CCOCC5)ccc43)cc2)[nH]n1 [Compound 89, 1-(5-tert-butyl-2H-pyrazol-3-yl)-3-{4-[5-(2-morpholin-4-yl-ethoxyl)-benzimidazol-1-yl]-phenyl}-urea]
